The test system of one test is H929 cells. Description: Cell viability assay (H929 10 FBS). The class given is cell-based. To be noted: Homo sapiens, NCI-H929, 24 hours, read-out: H929_10FBS IC50. Summed up:
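ATP-based luminescence (CellTiter-Glo or ATPlite 1 Step, 30-60 min at RT) gauged viability of H929 myeloma cells after 24 h compound treatment at 37 °C. Cells plated at 4000 per well in 10% FBS RPMI 1640 supplemented with pyruvate, HEPES and glucose.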

The target in another test is MCL-1 (Homo sapiens (Human), UniProt Q07820). Description: Cell free Mcl-1:Bim affinity assay (fluorescence polarization competition). To be noted: 15 nM MCL-1, 5 nM FITC-Bim, 1 hour at room temperature; class symbols; read-out: BIM_Ki. Format: binding. Summed up:
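Fluorescence polarization competition: 10-point 3-fold compound dilutions displaced 5 nM FITC-Bim from 15 nM MCL-1 over 1 h at room temperature. Ki was derived from the fitted IC50 using the Nikolovska-Coleska equation, with percent inhibition normalized to DMSO and positive controls.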

These results are taken from patent US11130769B2 (Prelude Therapeutics Incorporated, priority 2018, dated 2021).

Molecules are shown by their SMILES. Bounds are passed on as bounds.

The term IC50 denotes the concentration at which inhibition is half-maximal.

MCL-1, sequence (Q07820 whole entry): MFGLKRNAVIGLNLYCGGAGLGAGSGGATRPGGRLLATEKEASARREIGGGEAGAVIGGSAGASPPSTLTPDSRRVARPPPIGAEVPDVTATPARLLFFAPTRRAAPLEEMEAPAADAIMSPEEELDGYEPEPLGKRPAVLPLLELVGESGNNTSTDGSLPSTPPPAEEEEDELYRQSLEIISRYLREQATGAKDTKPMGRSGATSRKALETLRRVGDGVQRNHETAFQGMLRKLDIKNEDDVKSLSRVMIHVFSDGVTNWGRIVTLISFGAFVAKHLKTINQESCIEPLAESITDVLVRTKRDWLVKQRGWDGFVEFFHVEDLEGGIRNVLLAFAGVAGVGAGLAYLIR

With `CO[C@H]1/C=C/CNC(C)(C)C(=O)NS(=O)(=O)c2ccc3c(c2)N(C[C@@H]2CC[C@H]21)C[C@@]1(CCCc2cc(Cl)ccc21)CO3` [Example 136, (3R,6R,7S,8E,22S)-6′-Chloro-7-methoxy-12,12-dimethyl-15,15-dioxo-spiro[20-oxa-15-thia-1,11,14-triazatetracyclo[14.7.2.03,6.019,24]pentacosa-8,16,18,24-tetraene-22,1′-tetralin]-13-one], the IC50 in the test with H929 cells was above 1000 nM. For the same compound, the Ki on MCL-1 lay within 1 to 100 nM.
Turning to `CO[C@H]1/C=C/CN(C)C(C)(C)C(=O)NS(=O)(=O)c2ccc3c(c2)N(C[C@@H]2CC[C@H]21)C[C@@]1(CCCc2cc(Cl)ccc21)CO3` [Example 137, (3R,6R,7S,8E,22S)-6′-Chloro-7-methoxy-11,12,12-trimethyl-15,15-dioxo-spiro[20-oxa-15-thia-1,11,14-triazatetracyclo[14.7.2.03,6.019,24]pentacosa-8,16,18,24-tetraene-22,1′-tetralin]-13-one], in the test on H929 cells, the IC50 was below 1000 nM. In addition, the Ki on MCL-1 was 1 to 100 nM.
Consider `CN1C/C=C/[C@@H](O)[C@@H]2CC[C@H]2CN2C[C@@]3(CCCc4cc(Cl)ccc43)COc3ccc(cc32)S(=O)(=O)NC(=O)C12CCC2` [Example 138, (3R,6R,7R,8E,22S)-6′-Chloro-7-hydroxy-11-methyl-12,12-(1,3-propylene)-15,15-dioxo-spiro[20-oxa-15-thia-1,11,14-triazatetracyclo[14.7.2.03,6.019,24]pentacosa[8,16(25),17,19(24)]tetraene-22,1′-tetralin]-13-one], for which, in the test on H929 cells, the IC50 is below 1000 nM. Moreover, the Ki at MCL-1 is 1 to 100 nM.
The corresponding values for `CN(C)C(=O)CO[C@H]1/C=C/COC(C)(C)C(=O)NS(=O)(=O)c2ccc3c(c2)N(C[C@@H]2CC[C@H]21)C[C@@]1(CCCc2cc(Cl)ccc21)CO3` [Example 140, 2-[(3R,6R,7S,8E,22S)-6′-Chloro-12,12-dimethyl-13,15,15-trioxo-spiro[11,20-dioxa-15-thia-1,14-diazatetracyclo[14.7.2.03,6.019,24]pentacosa-8,16,18,24-tetraene-22,1′-tetralin]-7-yl]oxy-N,N-dimethyl-acetamide] are below 500 nM and below 1 nM.
On the same counts, the results for `CN(C)C(=O)CO[C@@H]1/C=C/COC(C)(C)C(=O)NS(=O)(=O)c2ccc3c(c2)N(C[C@@H]2CC[C@H]21)C[C@@]1(CCCc2cc(Cl)ccc21)CO3` [Example 141, 2-[(3R,6R,7R,8E,22S)-6′-Chloro-12,12-dimethyl-13,15,15-trioxo-spiro[11,20-dioxa-15-thia-1,14-diazatetracyclo[14.7.2.03,6.019,24]pentacosa-8,16,18,24-tetraene-22,1′-tetralin]-7-yl]oxy-N,N-dimethyl-acetamide] are below 500 nM and below 1 nM.
In the case of `CN(C)C(=O)CO[C@H]1/C=C/COC2(CC2)C(=O)NS(=O)(=O)c2ccc3c(c2)N(C[C@@H]2CC[C@H]21)C[C@@]1(CCCc2cc(Cl)ccc21)CO3` [Example 142, 2-[(3R,6R,7S,8E,22S)-6′-Chloro-12,12-ethylene-13,15,15-trioxo-spiro[11,20-dioxa-15-thia-1,14-diazatetracyclo[14.7.2.03,6.019,24]pentacosa-8,16,18,24-tetraene-22,1′-tetralin]-7-yl]oxy-N,N-dimethyl-acetamide], the IC50 in the test on H929 cells was below 1000 nM. The Ki at MCL-1 was below 1 nM.
With `CN(C)C(=O)CO[C@@H]1/C=C/COC2(CC2)C(=O)NS(=O)(=O)c2ccc3c(c2)N(C[C@@H]2CC[C@H]21)C[C@@]1(CCCc2cc(Cl)ccc21)CO3` [Example 143, 2-[(3R,6R,7R,8E,22S)-6′-Chloro-12,12-ethylene-13,15,15-trioxo-spiro[11,20-dioxa-15-thia-1,14-diazatetracyclo[14.7.2.03,6.019,24]pentacosa-8,16,18,24-tetraene-22,1′-tetralin]-7-yl]oxy-N,N-dimethyl-acetamide], in the test with H929 cells, the IC50 is below 500 nM. Moreover, the Ki at MCL-1 is below 1 nM.
The corresponding values for `C[C@@H]1C(=O)NS(=O)(=O)c2ccc3c(c2)N(C[C@@H]2CC[C@H]2[C@@H](O)/C=C/CN1C)C[C@@]1(CCCc2cc(Cl)ccc21)CO3` [Example 144, (3R,6R,7S,8E,12R,22S)-6′-Chloro-7-hydroxy-11,12-dimethyl-15,15-dioxo-spiro[20-oxa-15-thia-1,11,14-triazatetracyclo[14.7.2.03,6.019,24]pentacosa-8,16,18,24-tetraene-22,1′-tetralin]-13-one] are above 1000 nM and 1 to 100 nM.
On the same counts, the results for `C[C@@H]1C(=O)NS(=O)(=O)c2ccc3c(c2)N(C[C@@H]2CC[C@H]2[C@@H](OC(=O)N(C)C)/C=C/CN1C)C[C@@]1(CCCc2cc(Cl)ccc21)CO3` [Example 145, [(3R,6R,7S,8E,12R,22S)-6′-Chloro-11,12-dimethyl-13,15,15-trioxo-spiro[20-oxa-15-thia-1,11,14-triazatetracyclo[14.7.2.03,6.019,24]pentacosa-8,16,18,24-tetraene-22,1′-tetralin]-7-yl] N,N-dimethylcarbamate] are below 500 nM and below 1 nM.
The corresponding values for `C[C@H]1NC/C=C/[C@H](OC(=O)N(C)C)[C@@H]2CC[C@H]2CN2C[C@@]3(CCCc4cc(Cl)ccc43)COc3ccc(cc32)S(=O)(=O)NC1=O` [Example 146, [(3R,6R,7S,8E,12R,22S)-6′-Chloro-12-methyl-13,15,15-trioxo-spiro[20-oxa-15-thia-1,11,14-triazatetracyclo[14.7.2.03,6.019,24]pentacosa-8,16,18,24-tetraene-22,1′-tetralin]-7-yl] N,N-dimethylcarbamate] are below 500 nM and 1 to 100 nM.
Regarding `C[C@H]1C(=O)NS(=O)(=O)c2ccc3c(c2)N(C[C@@H]2CC[C@H]2[C@@H](OC(=O)N(C)C)/C=C/CN1C)C[C@@]1(CCCc2cc(Cl)ccc21)CO3` [Example 147, [(3R,6R,7S,8E,12S,22S)-6′-Chloro-11,12-dimethyl-13,15,15-trioxo-spiro[20-oxa-15-thia-1,11,14-triazatetracyclo[14.7.2.03,6.019,24]pentacosa-8,16,18,24-tetraene-22,1′-tetralin]-7-yl] N,N-dimethylcarbamate], in the test with H929 cells, the IC50 was below 500 nM. The Ki on MCL-1 was below 1 nM.
With `CC1(C)OC/C=C/[C@H](OC(=O)N2CCN(CCO)CC2)[C@@H]2CC[C@H]2CN2C[C@@]3(CCCc4cc(Cl)ccc43)COc3ccc(cc32)S(=O)(=O)NC1=O` [Example 148, [(3R,6R,7S,8E,22S)-6′-Chloro-12,12-dimethyl-13,15,15-trioxo-spiro[11,20-dioxa-15-thia-1,14-diazatetracyclo[14.7.2.03,6.019,24]pentacosa-8,16,18,24-tetraene-22,1′-tetralin]-7-yl] 4-(2-hydroxyethyl)piperazine-1-carboxylate], in the test with H929 cells, the IC50 was below 500 nM. Moreover, at MCL-1, the Ki was below 1 nM.
In the case of `CN1CCN(CCNC(=O)O[C@H]2/C=C/COC(C)(C)C(=O)NS(=O)(=O)c3ccc4c(c3)N(C[C@@H]3CC[C@H]32)C[C@@]2(CCCc3cc(Cl)ccc32)CO4)CC1` [Example 149, [(3R,6R,7S,8E,22S)-6′-Chloro-12,12-dimethyl-13,15,15-trioxo-spiro[11,20-dioxa-15-thia-1,14-diazatetracyclo[14.7.2.03,6.019,24]pentacosa-8,16,18,24-tetraene-22,1′-tetralin]-7-yl] N-[2-(4-methylpiperazin-1-yl)ethyl]carbamate], the IC50 with H929 cells was below 500 nM. In addition, the Ki on MCL-1 is below 1 nM.
Consider `CC1(C)OC/C=C/[C@H](OC(=O)NCCN2CCC(O)CC2)[C@@H]2CC[C@H]2CN2C[C@@]3(CCCc4cc(Cl)ccc43)COc3ccc(cc32)S(=O)(=O)NC1=O` [Example 150, [(3R,6R,7S,8E,22S)-6′-Chloro-12,12-dimethyl-13,15,15-trioxo-spiro[11,20-dioxa-15-thia-1,14-diazatetracyclo[14.7.2.03,6.019,24]pentacosa-8,16,18,24-tetraene-22,1′-tetralin]-7-yl] N-[2-(4-hydroxy-1-piperidyl)ethyl]carbamate], for which the IC50 with H929 cells was below 1000 nM. The Ki on MCL-1 was below 1 nM.
For the compound `CN1CC[C@H](NC(=O)O[C@H]2/C=C/COC(C)(C)C(=O)NS(=O)(=O)c3ccc4c(c3)N(C[C@@H]3CC[C@H]32)C[C@@]2(CCCc3cc(Cl)ccc32)CO4)C1` [Example 151, [(3R,6R,7S,8E,22S)-6′-Chloro-12,12-dimethyl-13,15,15-triox-spiro[11,20-dioxa-15-thia-1,14-diazatetracyclo[14.7.2.03,6.019,24]pentacosa-8,16,18,24-tetraene-22,1′-tetralin]-7-yl] N-[(3S)-1-methylpyrrolidin-3-yl]carbamate], the IC50 with H929 cells was below 500 nM. In addition, the Ki at MCL-1 is below 1 nM.
On to `CN1CC[C@@H](NC(=O)O[C@H]2/C=C/COC(C)(C)C(=O)NS(=O)(=O)c3ccc4c(c3)N(C[C@@H]3CC[C@H]32)C[C@@]2(CCCc3cc(Cl)ccc32)CO4)C1` [Example 152, [(3R,6R,7S,8E,22S)-6′-Chloro-12,12-dimethyl-13,15,15-trioxo-spiro[11,20-dioxa-15-thia-1,14-diazatetracyclo[14.7.2.03,6.019,24]pentacosa-8,16,18,24-tetraene-22,1′-tetralin]-7-yl] N-[(3R)-1-methylpyrrolidin-3-yl]carbamate], for which the IC50 in the test with H929 cells is below 500 nM. In addition, the Ki on MCL-1 was below 1 nM.
On to `CC1(C)OC/C=C/[C@H](OC(=O)N2CC(O)C2)[C@@H]2CC[C@H]2CN2C[C@@]3(CCCc4cc(Cl)ccc43)COc3ccc(cc32)S(=O)(=O)NC1=O` [Example 153], for which the IC50 in the test on H929 cells was below 500 nM. Moreover, the Ki at MCL-1 is below 1 nM.
